Results published in US8541458B2, “Oxabicycloheptanes and oxabicycloheptenes, their preparation and use” (Lixte Biotechnology, Inc., priority 2008, dated 2013).
Counter-ions that a name gives are not always drawn.

Columns and labels:
[1] = tested on: glioblastoma multiforme cells of line U373; assay: Inhibition of growth of glioblastoma multiforme cells, 7 days exposure; assay type: cell-based
Description: Inhibition of growth of glioblastoma multiforme cells of line U373 by exposure for 7 days to increasing concentrations of compound 109 compared to 10 uM compound 100.
Inhibition of growth of glioblastoma multiforme cells of line U373 by exposure for 7 days to increasing concentrations of compound 110 compared to 10 uM compound 100.
Inhibition of growth of glioblastoma multiforme cells of line […] by exposure for 7 days to increasing concentrations of compound 113 compared to 10 uM compound 100.
Inhibition of Growth of Glioblastoma Multiforme Cells of Line […] by Exposure for 7 Days to Increasing Concentrations of Compound 109, 110, 112, and 113

[2] = tested on: Akt; assay: Akt phosphorylation after intraperitoneal administration to mice; assay type: in vivo; conditions: given intraperitoneally to normal mice
Text: The compounds described herein increase the phosphorylation of several regulatory proteins including Akt. At low doses that are non-toxic to mice, these compounds slightly stimulate cell proliferation and increase phosphorylation of Akt in human cancer cells lines tested, including SH-SY5Y.
The mechanism by which the compounds described herein exert their neuroprotective effect may be by increasing the intra-neuronal cell activity of Akt-1 and enhancing the acetylation of neuronal histones. Each of these compounds when given by intraperitoneal injection increase Akt phosphorylation in mouse neurons. This increase in Aky phosphorylation is associated with an increase in the phosphorylation of GSK-3β. Because increased phosphorylation of GSK-3β is known to decrease its activity, chronic suppression of GSK 3β by the compounds described herein may reduce tau phosphorylation. Reduction in tau phosphorylation reduces the formation of paired helical filaments, an intervention that should lessen the progression of tauopathies, including Alzheimer's disease, Parkinson's disease, amyotrophic lateral sclerosis, and other rarer neurodegenerative diseases characterized by abnormal depositions of tau molecules.

[3] = Entry into the brain
[4] = tested on: Human Medulloblastoma DAOY cells; assay: DAOY xenografts implanted subcutaneously in SCID mice, tumor volume; assay type: in vivo; conditions: subcutaneous DAOY xenografts, 0.12 mg and 0.18 mg doses, two weeks of treatment, vs vehicle (PBS)
Description: (§1) Medulloblastoma DAOY cells were implanted subcutaneously in the flanks of SCID mice. After 7 days when the implanted tumor cells reached a mass with the average diameter of 6 mm, 6 animals received 0.12 mg of Compound 110, 6 animals received 0.18 mg of Compound 110, and 6 animals, received vehicle (PBS) only. After two weeks of treatment all animals were sacrificed, the subcutaneous tumor masses resected, and their volumes calculated.
as §1, with “Human Medulloblastoma” for “Medulloblastoma”, “animals” for “animals,”, “treatment,” for “treatment”

[5] = increasing concentrations, 7 days exposure

Structure (SMILES)	melting point	inhibition of cell growth [1, 5]	Akt phosphorylation [2]	entry into the brain [3]	other results
CN1CCN(C(=O)C2C3CCC(O3)C2C(=O)Oc2ccc(CC(N)C(=O)O)cc2)CC1 (centres unmarked) (as salt: hydrochloride) [Compound 110, 3-(4-Methylpiperazine-1-carbonyl)-7-oxa-bicyclo[2,2,1]heptane-2-carboxylic acid 4-(2-amino-2-carboxyethyl)-phenyl ester hydrochloride salt]	110 °C (dec.)				
O=C(OCc1ccccc1)C1C2CCC(O2)C1C(=O)N1CCN(CCO)CC1 (centres unmarked) [Compound 109, 3-[4-(2-Hydroxyethyl)-piperazine-1-carbonyl]-7-oxa-bicyclo[2.2.1]heptane-2-carboxylic acid benzyl ester]					inhibition of cell growth ([1]; highest concentrations, after 3 day): slight inhibition of cell growth; stimulation of cell growth ([1]; lower concentrations, increasing over 7 days): slight stimulatory activity
CN1CCN(C(=O)C2C3CCC(O3)C2C(=O)Oc2ccc(CC(N)C(=O)O)cc2)CC1 (centres unmarked) [Compound 110, 3-(4-Methylpiperazine-1-carbonyl)-7-oxa-bicyclo[2,2,1]heptane-2-carboxylic acid 4-(2-amino-2-carboxyethyl)-phenyl ester hydrochloride salt]		inhibited cell growth in a dose dependent manner	increased Akt phosphorylation	properties that enhance their entry into the brain	inhibition of tumor growth (tumor volume) [4]: significant inhibition of tumor growth
CN1CCN(C(=O)C2C3CCC(O3)C2C(=O)Oc2ccc(CC(NC(=O)OC(C)(C)C)C(=O)O)cc2)CC1 (centres unmarked) [Compound 112, 3-(4-Methylpiperazine-1-carbonyl)-7-oxa-bicyclo[2,2,1]heptane-2-carboxylic acid 4-(2-tert-butoxycarbonylamino-2-carboxyethyl)-phenyl ester]	165 °C (dec.)	inhibited cell growth in a dose dependent manner		properties that enhance their entry into the brain	
CN1CCN(C(=O)C2C3CCC(O3)C2C(=O)OCC(Cl)(Cl)Cl)CC1 (centres unmarked) [Compound 113, 3-(4-Methyl-piperazine-1-carbonyl)-7-oxa-bicylco[2,2,1]heptane-2-carboxylic acid 2,2,2-trichloroethyl ester]		inhibited cell growth in a dose dependent manner	increased Akt phosphorylation	properties that enhance their entry into the brain	
O=C(O)C1C2CCC(O2)C1C(=O)NCCN1C(=O)NC(c2ccccc2)(c2ccccc2)C1=O (centres unmarked) [Compound 114, 3-[2-(2,5-Dioxo-4,4-diphenyl-imidazolidin-1-yl)-ethylcarbamoyl]-7-oxa-bicyclo(2.2.1]heptane-2-carboxylic acid]				properties that enhance their entry into the brain	
